Experimental data published in US10201558B2, “Compositions of selenoorganic compounds and methods of use thereof” (Alltech, Inc., priority 2014, dated 2019).

Legend:
PPARG = experiment: Western blot of PPARG protein in IMR-32 cells; type: cell-based, human; details: 150 ppb, 6 hours
Description: IMR-32 cells were seeded on 6-well plates and then treated with control and various compounds for 6 hours and 24 hours, as described above. After treatments, cells were rinsed with ice-cold PBS and lysed in ice-cold RIPA buffer containing complete proteinase and phosphatase inhibitors (Thermo-Fisher Scientific, Waltham, Mass.) on ice for 30 min Cell lysates were collected using a cell scraper and transfer pipette and then centrifuged at 12000×g for 30 min at 4° C. to remove the DNA pellet and obtain the protein extract. Protein levels in the supernatant of these cell lysates were determined using the Pierce Micro-BCA protein assay kit (Thermo Scientific-Piece Biotechnology, Rockford, Ill.) according to the manufacturer's protocol […]
Positive signals on the membrane blots were detected using Amersham's enhanced chemiluminescence (ECL) Western Blotting Prime Detection reagents (GE healthcare Lifescience, Pittsburgh, Pa.). Images of these luminescence signals on the membrane blots were captured using the LI-COR Odyssey Fc Image system (Lincoln, Nebr.). […] Protein band densities in the Western blots were determined using the Li—COR Image studio software or NIH ImageJ software, and then normalized by ACTB protein level in each sample. […]

insoluble Aβ1-42 = experiment: ELISA of insoluble (FA-soluble) Aβ1-42 in the brains of APP/PS1 mice; type: in vivo, mouse; details: diet with 1 ppm Se from Compound C, 6 to 12 months of age, vs control mice
Description: (§1) Male APPΔNLh/ΔNLh×PS1P246 L/246 L knock-in model mice of Alzheimer's disease (abbreviated APP/PS1) were genotyped using standard primers for human APP (Amyloid Precursor Protein) and human PS1 (PSEN1). These APP/PS1 mice starting at the age of 6 months, were fed either a control diet containing normal levels of selenium (0.3 ppm from plant and inorganic selenium salt sources) or an experimental diet containing Compound C (the control diet to which was added 1 ppm Se from Compound C) for 6 months.
(§2) At 12 months of age, the mice were euthanized and the brains quickly removed, the cerebellum isolated and the hemispheres snap-frozen in liquid nitrogen and then stored at −80° C. for further immunohistochemistry (IHC), protein and RNA analysis. All procedures conducted on these animal studies were pre-approved by the University of Kentucky IACUC committee.
Frozen hemispheres of control- and Compound C-treated APP/PS1 mice were weighed and homogenized in PBS buffer. Insoluble Aβ fractions (formic acid (FA)-soluble fractions) were extracted from the homogenates using standard serial extraction protocols as described previously (Lovell et al, Free Radic Biol Med 2009; 46:1527-33) Insoluble Aβ1-42 levels (in the FA soluble fraction) were determined using standard sandwich ELISAs (Invitrogen), according to the manufacturer's procedure. […]

[1] = tested on: Aβ plaque deposits (Aβ1-42); experiment: IHC analysis of amyloid deposits in the brains of APP/PS1 mice; type: in vivo, mouse; details: diet with 1 ppm Se from Compound C, 6 to 12 months of age
Description: as §1, §2
Frozen brain tissues were sectioned using a Leica-CM1900 cryostat (Leica Microsystems Inc., Bannockburn, Ill.), as described previously (Zhang et al, 2008. Biochem Biophys Res Commun). These frozen brain sections were subjected to immunohistochemistry staining of Aβ plaques using a specific polyclonal antibody against Aβ1-42 (Abcam) and the Rabbit ImmunoCruz Staining System (Santa Cruz Biotechnology, Santa Cruz, Calif.) according to the manufacturer's protocol. […]

IGF1R = experiment: QRT-PCR of IGF1R mRNA in IMR-32 cells; type: cell-based, human; details: 75 ppb and 150 ppb, 24 hours
Description: Human IMR-32 cells were seeded on gelatinized 6-well (6.5×10^5 cells/well) or 24-well (1.3×10^5 cells/well) plates. Cells were treated with control (0 ppb) or various compounds for 6 hours or 24 hours. Total RNA from these cells was isolated using Trizol (Invitrogen) according to the manufacturer's protocol, and then incubated with DNase I to remove any potential contaminated genomic DNA. Then RNA samples were subjected to real-time PCR analysis using the Applied-Bioscience's RT kit and predesigned Taqman probes (Invitrogen), as described previously (Lan et al EMBO J 2003). The mRNA levels of UCP1, UCP2, UCP3, SLC25A27 (UCP4), SLC25A14 (UCP5), PSEN1, Nicastrin, GSK3B, MAPK11-14, PPARG, APOE, RCAN1, RCAN1.1, G6PC, INSR, IGF1R and FOXO4 were measured. Three to six samples were analyzed in each treatment group. Data were normalized by Actin B (ACTB) or Glyceraldehyde Phosphate Dehydrogenase (GAPDH) mRNA levels in each sample and are presented as mean±SEM of 3-6 samples.
To examine whether or not Compound C can regulate INSR/IGF1R signaling in IMR-32 cells, QRT-PCR analysis was performed to measure INSR and IGF1R mRNA levels. […] Mean±SEM, n=4. The * refers to a p value <0.05 when compared to the control group (0 ppb).

C[Se]C[C@H]1O[C@@H](n2cnc3c(N)ncnc32)C(O)C1O (stereo in doubt) [Compound C, 5′-deoxy-5′-methylselenoadenosine]
PPARG protein expression (PPARG): markedly attenuated
reduction of FA-soluble Aβ1-42 levels in the brains (insoluble Aβ1-42): about 30%
Aβ plaque deposits in the brain cortex (IHC, Aβ1-42 staining) [1]: much fewer and/or weaker-staining
Aβ plaque deposits in the brain hippocampus (IHC, Aβ1-42 staining) [1]: much fewer and/or weaker-staining
IGF1R mRNA expression levels (IGF1R): downregulated
